Blank lines part the entries; values can stand above or below the compound they belong to.
Tests used:
[1] = tested on: Colletotrichum Lagenarium; assay: Action against Colletotrichum lagenarium on cucumbers; type: in vivo; conditions: cucumber plants, spray mixture 0.002%, infected 2 days later, evaluation 8 days after infection
Method: Action Against Colletotrichum Lagenarium on Cucumbers After a growth period of 2 weeks, cucumber plants are sprayed with an aqueous spray mixture (concentration 0.002%) prepared from a wettable powder formulation of the test compound and infected 2 days later with a spore suspension (1.5×10^5 spores/ml) of the fungus and incubated for 36 hours at 23° C. and high humidity. Incubation is then continued at normal humidity and c. 22° C. Evaluation of the fungal infestation is made 8 days after infection.

Venturia Naegualis = assay: Residual-protective action against Venturia inaequalis on apples; type: in vivo; conditions: apple cuttings, spray mixture 0.02% a.i., infected 24 hours later, evaluation 12 days after infection
Method: Residual-protective Action Against Venturia Naegualis on Apples
Apple cuttings with fresh shoots 10 to 20 cm long are sprayed to drip point with a spray mixture (0.02% a.i.) prepared from a wettable powder formulation of the test compound. The plants are infected 24 hours later with a conidia suspension of the fungus. The plants are then incubated for 5 days at 90 to 100% relative humidity and stood in a greenhouse for a further […] at 20 to 24° C. Evaluation of the fungal infestation is made 12 days after infection. Compounds of Tables 1-4 show good activity, preferably the compounds 1.72, 1.81, 1.152, 1.160, 2.11, 3.6, 4.3, 4.5, 4.6, 4.27, 4.29, 4.30, 4.36, 4.38, 4.39, 4.43, 4.45, 4.62, 4.80 and 4.111.

melting point: 58 to 60 °C
Compound: CCCCc1nc2ccc(Cl)cc2c(=NC)n1CCC [Compound 1.72]
activity against Colletotrichum lagenarium (fungal infestation) [1]: good to excellent activity
residual-protective activity against Venturia on apples (fungal infestation) (Venturia Naegualis): good activity

melting point: 53 to 55 °C
Compound: CCCOC1=Nc2ccc(Cl)cc2C(=CN)N1CCC [Compound 1.74, (6-chloro-2-propoxy-3-propyl-3H-quinazolin-4-ylidene)methylamine]

melting point: 61 to 64 °C
Compound: CCCCc1nc2ccc(Br)cc2c(=NC)n1CCC [Compound 1.81]
activity against Colletotrichum lagenarium (fungal infestation) [1]: good to excellent activity
residual-protective activity against Venturia on apples (fungal infestation) (Venturia Naegualis): good activity

melting point: 50 to 51 °C
Compound: CCCN=c1c2cc(Cl)ccc2nc(OCCC)n1CCC [Compound 1.152, (6-Chloro-2-propoxy-3-propyl-3H-quinazoline-4-ylidene)propylamine]
activity against Colletotrichum lagenarium (fungal infestation) [1]: good to excellent activity
residual-protective activity against Venturia on apples (fungal infestation) (Venturia Naegualis): good activity

Compound: CCCCN=c1c2cc(Cl)ccc2nc(OCCC)n1CCCC [Compound 1.160]
activity against Colletotrichum lagenarium (fungal infestation) [1]: good to excellent activity
residual-protective activity against Venturia on apples (fungal infestation) (Venturia Naegualis): good activity

Compound: CCCOc1nc2ncc(Br)cc2c(=N)n1CCC [Compound 2.11]
activity against Colletotrichum lagenarium (fungal infestation) [1]: good to excellent activity
residual-protective activity against Venturia on apples (fungal infestation) (Venturia Naegualis): good activity

Compound: CCCOc1nc2c(Br)csc2c(=NC)n1CCC [Compound 3.6]
activity against Colletotrichum lagenarium (fungal infestation) [1]: good to excellent activity
residual-protective activity against Venturia on apples (fungal infestation) (Venturia Naegualis): good activity

Compound: CCCCc1nc2sccc2c(=N)n1CCC [Compound 4.3]
activity against Colletotrichum lagenarium (fungal infestation) [1]: good to excellent activity
residual-protective activity against Venturia on apples (fungal infestation) (Venturia Naegualis): good activity

melting point: 61 to 63 °C
Compound: CCCOc1nc2sccc2c(=N)n1CCC [Compound 4.5]
activity against Colletotrichum lagenarium (fungal infestation) [1]: good to excellent activity
residual-protective activity against Venturia on apples (fungal infestation) (Venturia Naegualis): good activity

Compound: CCCCn1c(OCCC)nc2sccc2c1=N [Compound 4.6]
activity against Colletotrichum lagenarium (fungal infestation) [1]: good to excellent activity
residual-protective activity against Venturia on apples (fungal infestation) (Venturia Naegualis): good activity

Compound: CCCCc1nc2sc(Cl)cc2c(=NC)n1CCC [Compound 4.27, (2-Butyl-6-chloro-3-propyl-3H-thieno [2,3-d]pyrimidine-4-ylidene)methylamine]
activity against Colletotrichum lagenarium (fungal infestation) [1]: good to excellent activity
residual-protective activity against Venturia on apples (fungal infestation) (Venturia Naegualis): good activity

Compound: CCCCn1c(OCCC)nc2sc(Cl)cc2c1=NC [Compound 4.30]
activity against Colletotrichum lagenarium (fungal infestation) [1]: good to excellent activity
residual-protective activity against Venturia on apples (fungal infestation) (Venturia Naegualis): good activity

Compound: CCCOc1nc2sc(Br)cc2c(=NC)n1CCC [Compound 4.38, (6-Bromo-3-propyl-2-propoxy-3H-thieno[2,3-d]pyrimidine-4-ylidene)methylamine]
activity against Colletotrichum lagenarium (fungal infestation) [1]: good to excellent activity
residual-protective activity against Venturia on apples (fungal infestation) (Venturia Naegualis): good activity

Compound: CCCCn1c(OCCC)nc2sc(Br)cc2c1=NC [Compound 4.39]
activity against Colletotrichum lagenarium (fungal infestation) [1]: good to excellent activity
residual-protective activity against Venturia on apples (fungal infestation) (Venturia Naegualis): good activity

Compound: CCCCc1nc2sc(Cl)cc2c(=NCC)n1CCC [Compound 4.43]
activity against Colletotrichum lagenarium (fungal infestation) [1]: good to excellent activity
residual-protective activity against Venturia on apples (fungal infestation) (Venturia Naegualis): good activity

Compound: CCCOc1nc2sc(Cl)cc2c(=NCC)n1CCC [Compound 4.45]
activity against Colletotrichum lagenarium (fungal infestation) [1]: good to excellent activity
residual-protective activity against Venturia on apples (fungal infestation) (Venturia Naegualis): good activity

Compound: C=CCN=c1c2cc(Cl)sc2nc(OCCC)n1CCC [Compound 4.62]
activity against Colletotrichum lagenarium (fungal infestation) [1]: good to excellent activity
residual-protective activity against Venturia on apples (fungal infestation) (Venturia Naegualis): good activity

Compound: C#CCN=c1c2cc(Cl)sc2nc(OCCC)n1CCC [Compound 4.80]
activity against Colletotrichum lagenarium (fungal infestation) [1]: good to excellent activity
residual-protective activity against Venturia on apples (fungal infestation) (Venturia Naegualis): good activity

Compound: CCCOc1nc2sc(Cl)cc2c(=NCl)n1CCC [Compound 4.111]
activity against Colletotrichum lagenarium (fungal infestation) [1]: good to excellent activity
residual-protective activity against Venturia on apples (fungal infestation) (Venturia Naegualis): good activity

melting point: 103 to 104 °C
Compound: CCCCc1nc2sc(Cl)cc2c(=NC(=O)OC)n1CCCC [Compound 4.119, (6-chloro-2-butyl-3-butyl-3H-thieno[2,3-d]pyrimidine-4-ylidene)carbamic acid methylester]

melting point: 101 to 103 °C
Compound: CCCOc1nc2sc(Cl)cc2c(=NC(C)=O)n1CCC [Compound 4.137, N-(6-chloro-2-propoxy-3-propyl-3H-thieno[2,3-d]pyrimidine-4-ylidene)acetamide]

melting point: 98 to 99 °C
Compound: CCCCc1nc2sc(Cl)cc2c(=NC(C)=O)n1CCC [Compound 4.139, N-(6-chloro-2-butyl-3-propyl-3H-thieno[2,3-d]pyrimidine-4-ylidene)acetamide]

Reference: patent US20030040521A1, “Novel pyrimidin-4-enamine as fungicide” (priority 1998, published 2003)
